Laboratory results: patent publication US7090991B2 (priority 1999, dated 2006)
Non-standard residues stand in square brackets, D forms with d. Residues, ends and D or L forms follow the SMILES beside them. No end group written: not given here.

Experiments:
[1] = system: Growth Hormone Secretagoge Receptor; assay: Test cell + FUS1p-lacZ plasmid, GHSR; assay type: cell-based, sheep; details: CY18879, CP6416, saturating or near saturating ligand
Description: (§1) Detection of LacZ activity in the detector cells (data shown in Table 6) was performed essentially as described in the experimental protocol of Example 1, with the exception that 20 microliters of a solution containing 0.5 mM fluorescein di-β-D-galactopyranoside (FDG), 125 mM PIPES pH 7.2, 1.25% Triton X-100 was added instead of the 20 microliters of CPRG solution utilized in Example 1. Following addition of the FDG solution, the reaction was incubated for 30 minutes at 37° C. After stopping the reaction with 20 microliters of 1 M Na2CO3, the fluorescence was determined utilizing a 96-well plate reader with an excitation wavelength of 485 nm and an emission wavelength of 535 nm.

[2] = system: Growth Hormone Secretagoge Receptor; assay: Test cell + detector cell (FDG), GHSR; assay type: cell-based, sheep; details: CY18879, CP6416, saturating or near saturating ligand
Description: (§2) A strain of test cells was established by transforming (transfecting) a culture of S. cerevisiae yeast cells with the human1a (ML1a) receptor gene. Cultures of MATα test cells containing a heterologous ML1a receptor (CY1 3858) and MATa detector cells (a CY19 related strain containing the CP1212 FUS1p-LacZ plasmid) were grown overnight to stationary phase in media selective for the maintenance of the plasmids (SCD-leu media for the MATα cells and SCD-ura for the MATα cells). The cells were diluted with additional medium and permitted to recover from stationary phase for several hours. After determination of the optical density of the cultures, the cells were harvested by centrifugation, were washed once in non-selective synthetic medium, and were resuspended in non-selective medium at an approximate optical density (measured at 600 nm) of 0.4. […] The final volume of cells, culture medium and ligand was about 100 microliters. The cells were mixed using a plate-mixer and incubated at 30° C. […] The reaction was then stopped by the addition of 60 microliters 1 M sodium carbonate, and the absorbance at a wavelength of 575 nm was determined using a plate reader. […]

R-VIP-1 = assay: Test cell + FUS1p-lacZ plasmid, R-VIP-1; assay type: cell-based, Rat; details: CY18636, CP4110, saturating or near saturating ligand
Description: as §1

R-VIP-1 Rat = assay: Test cell + detector cell (FDG), R-VIP-1; assay type: cell-based; details: CY18636, CP4110, saturating or near saturating ligand
Description: as §2

melatonin ML1a receptor = target: T1, melatonin ML1a receptor (Homo sapiens, UniProt P48039); assay: Two cell assay: MATα test cells with ML1a receptor (CY13858) + MATa FUS1p-LacZ detector cells, β-galactosidase (CPRG); assay type: cell-based
T1 construct: expressed in transfected cells; host or cells: S. cerevisiae MATα test cells (CY13858; CY18596, MFα1-deleted), plasmid CP2695
T1 sequence (P48039 whole entry): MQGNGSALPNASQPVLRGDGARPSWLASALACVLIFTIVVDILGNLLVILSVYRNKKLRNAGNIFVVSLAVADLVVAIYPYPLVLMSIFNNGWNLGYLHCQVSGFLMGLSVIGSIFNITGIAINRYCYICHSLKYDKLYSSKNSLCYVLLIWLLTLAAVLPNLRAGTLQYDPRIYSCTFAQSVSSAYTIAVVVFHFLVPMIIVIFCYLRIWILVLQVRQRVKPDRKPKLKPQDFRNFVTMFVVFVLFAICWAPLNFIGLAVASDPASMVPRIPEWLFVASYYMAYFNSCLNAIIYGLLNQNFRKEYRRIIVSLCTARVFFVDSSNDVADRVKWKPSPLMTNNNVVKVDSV
Excerpt: Binding of cognate ligand to the heterologous receptor in the test cell activates the receptor, causing a signal to be transduced through the pheromone response pathway, ultimately resulting in the secretion of α-factor from the cell. Specific receptors at the surface of the detector cells bind to the secreted α-factor and are activated by it, resulting in the transduction of a signal through the pheromone response pathway in these cells, and activating the transcription of the lacZ gene. The activity of the β-galactosidase expressed from this lacZ gene may be determined and thereby enables a determination of the activity of the pheromone response pathway in the first, test cells.
A strain of test cells was established by transforming (transfecting) a culture of S. cerevisiae yeast cells with the human1a (ML1a) receptor gene. […] After determination of the optical density of the cultures, the cells were harvested by centrifugation, were washed once in non-selective synthetic medium, and were resuspended in non-selective medium at an approximate optical density (measured at 600 nm) of 0.4. […] The reaction was then stopped by the addition of 60 microliters 1 M sodium carbonate, and the absorbance at a wavelength of 575 nm was determined using a plate reader.

ML1a melatonin receptor = target: T2, ML1a melatonin receptor (Homo sapiens, UniProt P48039); assay: Two cell assay: MFα1-deleted MATα test cells with ML1a receptor (CY18596) + MATa detector cells, β-galactosidase (CPRG); assay type: cell-based; details: MFα1-deleted test cells expressing ML1a receptor
T2 construct: expressed in transfected cells; host or cells: S. cerevisiae MATα test cells (CY13858; CY18596, MFα1-deleted), plasmid CP2695
T2 sequence (P48039 whole entry): as above
Description: (§3) Cultures of MATα test cells containing a heterologous ML1a receptor (CY1 3858) and MATa detector cells (a CY19 related strain containing the CP1212 FUS1p-LacZ plasmid) were grown overnight to stationary phase in media selective for the maintenance of the plasmids (SCD-leu media for the MATα cells and SCD-ura for the MATα cells). The cells were diluted with additional medium and permitted to recover from stationary phase for several hours. After determination of the optical density of the cultures, the cells were harvested by centrifugation, were washed once in non-selective synthetic medium, and were resuspended in non-selective medium at an approximate optical density (measured at 600 nm) of 0.4. […] The final volume of cells, culture medium and ligand was about 100 microliters. The cells were mixed using a plate-mixer and incubated at 30° C. […] The reaction was then stopped by the addition of 60 microliters 1 M sodium carbonate, and the absorbance at a wavelength of 575 nm was determined using a plate reader.
Using the experimental protocol described in Example 1, MATα test cells lacking the MFα1 gene and containing a plasmid encoding the ML1a receptor (CY18596) or a mock control plasmid (CY18594) were mixed with an equal number of MATa detector cells having a FUS1-LacZ plasmid. […]

[3] = system: MATα test cells lacking the ML1a receptor; assay: Two cell assay: MFα1-deleted MATα test cells with mock plasmid (CY18594) + MATa detector cells, β-galactosidase (CPRG); assay type: cell-based, S. cerevisiae; details: in the presence of melatonin
Description: as §3

Bradykinin 2 Receptor [4] = target: T3, Bradykinin 2 Receptor (Homo sapiens, UniProt P30411); assay: Test cell + FUS1p-lacZ plasmid, BK2; assay type: cell-based; details: CY18778, CP1930, saturating or near saturating ligand
T3 construct: expressed in transfected cells; host or cells: S. cerevisiae MATα test cells, plasmid CP1930
T3 sequence (P30411 1-391): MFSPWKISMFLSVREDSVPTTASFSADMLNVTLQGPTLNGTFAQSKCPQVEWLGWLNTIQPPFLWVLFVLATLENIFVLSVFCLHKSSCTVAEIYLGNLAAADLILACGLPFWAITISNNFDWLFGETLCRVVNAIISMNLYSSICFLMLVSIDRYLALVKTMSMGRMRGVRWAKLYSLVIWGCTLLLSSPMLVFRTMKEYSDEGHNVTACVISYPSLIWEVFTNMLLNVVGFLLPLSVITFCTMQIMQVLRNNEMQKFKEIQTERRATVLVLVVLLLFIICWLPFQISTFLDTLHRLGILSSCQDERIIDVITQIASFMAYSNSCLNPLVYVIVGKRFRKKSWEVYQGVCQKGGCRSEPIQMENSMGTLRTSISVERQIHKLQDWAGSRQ
Description: as §1

Bradykinin 2 Receptor [5] = target: T3, Bradykinin 2 Receptor; assay: Test cell + detector cell (FDG), BK2; assay type: cell-based; details: CY18778, CP1930, saturating or near saturating ligand
Description: as §2

## C[C@H](NC(=O)[C@@H](Cc1c[nH]c2ccccc12)NC(=O)[C@@H](N)Cc1c[nH]cn1)C(=O)N[C@@H](Cc1c[nH]c2ccccc12)C(=O)N[C@H](Cc1ccccc1)C(=O)N[C@@H](CCCCN)C(N)=O [GHRP-6] (H-H[dW]AW[dF]K-NH2)
[1]
  Fold induction, Test Cell + FUS1p-lacZ plasmid: 9 fold
[2]
  Fold induction, Test cell + Detector Cell: 4 fold

## NC(=O)CC[C@@H]1NC(=O)[C@H](Cc2ccccc2)NC(=O)[C@H](Cc2ccc(O)cc2)NC(=O)[C@@H](N)CSSC[C@@H](C(=O)N2CCC[C@H]2C(=O)N[C@@H](CCCN=C(N)N)C(=O)NCC(N)=O)NC(=O)[C@H](CC(N)=O)NC1=O [Vasopressin]
R-VIP-1
  Fold induction, Test Cell + FUS1p-lacZ plasmid: 20 fold
R-VIP-1 Rat
  Fold induction, Test cell + Detector Cell: 8 fold

## COc1ccc2[nH]cc(CCNC(C)=O)c2c1 [melatonin]
Melatonin ML1a receptor; in the presence of melatonin, no ligand approximately 1.1 units
  β-galactosidase activity in the detector cells: approximately 1.8 units
Melatonin ML1a receptor; melatonin versus no ligand
  induction in β-galactosidase activity: approximately 1.6 fold
ML1a melatonin receptor; in the presence of melatonin
  β-galactosidase activity: approximately 2.1 units
ML1a melatonin receptor; melatonin versus no ligand
  increase in β-galactosidase activity: ~5.2 fold
[3]
  α-factor secretion by test cells as detected by detector cells: did not secrete any additional α-factor

## RPPGFSPFR [Bradykinin]
Bradykinin 2 Receptor [4]
  Fold induction, Test Cell + FUS1p-lacZ plasmid: 101 fold
Bradykinin 2 Receptor [5]
  Fold induction, Test cell + Detector Cell: 84 fold
